The values that follow come from patent US8519149B2, “Tricyclic compounds as mPGES-1 inhibitors” (Glenmark Pharmaceuticals S.A., priority 2010, dated 2013).

In the test the target is T1, Recombinant human mPGES-1 (Homo sapiens, UniProt O14684).
T1 sequence (O14684 1-152): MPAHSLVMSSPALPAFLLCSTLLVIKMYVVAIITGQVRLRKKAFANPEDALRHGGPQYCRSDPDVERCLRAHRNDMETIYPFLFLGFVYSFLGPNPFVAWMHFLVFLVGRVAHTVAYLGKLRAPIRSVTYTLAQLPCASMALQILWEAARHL
The test can be described thus: In-vitro mPGES-1 enzyme inhibition assay (PGE2 formation from PGH2, HTRF detection). The test is classed as biochemical. Conditions: for inhibition at 1 µM: 1 μM test compound, read-out: Percentage inhibition at 1 μM; for inhibition at 1 µM / inhibition at 10 µM: recombinant human mPGES-1 microsomal fraction; for inhibition at 10 µM: 10 μM test compound, read-out: Percentage inhibition at 10 μM; for IC50: class symbols, selected examples. The method, boiled down: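 Crude microsomal fractions containing recombinant human mPGES-1 (40-60 μg/mL protein) convert PGH2 to PGE2 in the presence of reduced glutathione, with 0.5% final DMSO. Reaction stopped with stannous chloride, and PGE2 measured by anti-PGE2 antibody (HTRF) detection. IC50 by nonlinear regression of % inhibition versus uninhibited enzyme control.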
In general terms: TR-FRET usually uses a lanthanide donor and a delayed reading to cut background.

As usually defined, the inhibition is the percentage by which the read-out fell short of the control. In general, IC50 refers to the point on the concentration scale where inhibition reaches its midpoint. Take `CC1(C)Cc2c(c(C(=O)Nc3cc(C(F)(F)F)ccc3F)cc3nc(Nc4c(Cl)cncc4Cl)[nH]c23)O1` [Example-195, 2-((3,5-Dichloropyridin-4-yl)amino)-N-(2-fluoro-5-(trifluoromethyl)phenyl)-7,7-dimethyl-7,8-dihydro-1H-benzofuro[4,5-d]imidazole-5-carboxamide]: the inhibition at 1 µM worked out at 98.8%, the inhibition at 10 µM was found to be 99% and the IC50 is under 50 nM.

In the case of `CC1(C)Cc2c(c(C(=O)Nc3ccc(F)c(C(F)(F)F)c3)cc3nc(Nc4c(Cl)cncc4Cl)[nH]c23)O1` [Example-196, 2-((3,5-Dichloropyridin-4-yl)amino)-N-(4-fluoro-3-(trifluoromethyl)phenyl)-7,7-dimethyl-7,8-dihydro-1H-benzofuro[4,5-d]imidazole-5-carboxamide], the inhibition at 1 µM came to 100% and the inhibition at 10 µM was determined as 98.8%.

As for `CC1(C)Cc2c(c(C(=O)Nc3ccc(F)cc3F)cc3nc(Nc4c(Cl)cncc4Cl)[nH]c23)O1` [Example-197, 2-((3,5-Dichloropyridin-4-yl)amino)-N-(2,4-difluorophenyl)-7,7-dimethyl-7,8-dihydro-1H-benzofuro[4,5-d]imidazole-5-carboxamide], the inhibition at 1 µM is 99.6%, the inhibition at 10 µM came out at 99.5% and the IC50 was under 50 nM.

Take `Cc1ccc(NC(=O)c2cc3nc(Nc4c(Cl)cncc4Cl)[nH]c3c3c2OC(C)(C)C3)c(Cl)c1` [Example-198, N-(2-Chloro-4-methylphenyl)-2-((3,5-dichloropyridin-4-yl)amino)-7,7-dimethyl-7,8-dihydro-1H-benzofuro[4,5-d]imidazole-5-carboxamide]: the inhibition at 1 µM came to 98.7%, the inhibition at 10 µM was 99.7% and the IC50 was under 50 nM.

Regarding `CC1(C)Cc2c(c(C(=O)Nc3cc(F)c(F)cc3F)cc3nc(Nc4c(Cl)cncc4Cl)[nH]c23)O1` [Example-199, 2-((3,5-Dichloropyridin-4-yl)amino)-7,7-dimethyl-N-(2,4,5-trifluorophenyl)-7,8-dihydro-1H-benzofuro[4,5-d]imidazole-5-carboxamide], the inhibition at 1 µM was 99.4%, the inhibition at 10 µM was 100% and the IC50 was under 50 nM.

In the case of `Cc1cccc(Cl)c1Nc1nc2cc(C(=O)Nc3ccc(F)c(F)c3F)c3c(c2[nH]1)CC(C)(C)O3` [Example-202, 2-((2-Chloro-6-methylphenyl)amino)-7,7-dimethyl-N-(2,3,4-trifluorophenyl)-7,8-dihydro-1H-benzofuro[4,5-d]imidazole-5-carboxamide], the inhibition at 1 µM amounted to 95.1%, the inhibition at 10 µM was determined as 100% and the IC50 is under 50 nM.

Take `CC1(C)Cc2c(c(C(=O)Nc3cc(C4CC4)ccc3F)cc3nc(Nc4c(Cl)cncc4Cl)[nH]c23)O1` [Example-203, N-(5-Cyclopropyl-2-fluorophenyl)-2-((3,5-dichloropyridin-4-yl)amino)-7,7-dimethyl-7,8-dihydro-1H-benzofuro[4,5-d]imidazole-5-carboxamide]: the inhibition at 1 µM was determined as 100%, the inhibition at 10 µM was determined as 94.8% and the IC50 is under 50 nM.

For `Cc1cccc(Cl)c1Nc1nc2cc(C(=O)Nc3ncc(Cl)cc3F)c3c(c2[nH]1)CC(C)(C)O3` [Example-204, N-(5-Chloro-3-fluoropyridin-2-yl)-2-((2-chloro-6-methylphenyl)amino)-7,7-dimethyl-7,8-dihydro-1H-benzofuro[4,5-d]imidazole-5-carboxamide], the inhibition at 1 µM turned out to be 98%, the inhibition at 10 µM was found to be 100% and the IC50 is under 50 nM.

Turning to `CC1(C)Cc2c(c(C(=O)Nc3ncc(Cl)cc3F)cc3nc(Nc4c(Cl)cccc4Cl)[nH]c23)O1` [Example-205, N-(5-Chloro-3-fluoropyridin-2-yl)-2-((2,6-dichlorophenyl)amino)-7,7-dimethyl-7,8-dihydro-1H-benzofuro[4,5-d]imidazole-5-carboxamide], the inhibition at 1 µM is 99.9%, the inhibition at 10 µM worked out at 100% and the IC50 is under 50 nM.

`CC1(C)Cc2c(c(C(=O)Nc3ccc(F)c(F)c3F)cc3nc(Nc4c(Cl)cncc4Cl)[nH]c23)O1` [Example-212, 2-((3,5-Dichloropyridin-4-yl)amino)-7,7-dimethyl-N-(2,3,4-trifluorophenyl)-7,8-dihydro-1H-benzofuro[4,5-d]imidazole-5-carboxamide]: the inhibition at 1 µM turned out to be 95.1%, the inhibition at 10 µM was determined as 98.8% and the IC50 is under 50 nM.

`Cn1c(Nc2c(Cl)cncc2Cl)nc2cc(C(=O)Nc3ccc(F)c(C(F)(F)F)c3)c3c(c21)CC(C)(C)O3` [Example-213, 2-((3,5-Dichloropyridin-4-yl)amino)-N-(4-fluoro-3-(trifluoromethyl)phenyl)-1,7,7-trimethyl-7,8-dihydro-1H-benzofuro[4,5-d]imidazole-5-carboxamide]: the inhibition at 1 µM worked out at 96.3% and the inhibition at 10 µM came to 97.3%.

Regarding `Cn1c(Nc2c(Cl)cncc2Cl)nc2cc(C(=O)Nc3cccc(C(F)(F)F)c3)c3c(c21)CC(C)(C)O3` [Example-214, 2-((3,5-Dichloropyridin-4-yl)amino)-1,7,7-trimethyl-N-(3-(trifluoromethyl)phenyl)-7,8-dihydro-1H-benzofuro[4,5-d]imidazole-5-carboxamide], the inhibition at 1 µM is 98.4% and the inhibition at 10 µM was found to be 96.5%.

Consider `Cn1c(Nc2c(Cl)cncc2Cl)nc2cc(C(=O)Nc3ccc(C(F)(F)F)cc3)c3c(c21)CC(C)(C)O3` [Example-215, 2-((3,5-dichloropyridin-4-yl)amino)-1,7,7-trimethyl-N-(4-(trifluoromethyl)phenyl)-7,8-dihydro-1H-benzofuro[4,5-d]imidazole-5-carboxamide], for which the inhibition at 1 µM was determined as 96.3% and the inhibition at 10 µM turned out to be 94.1%.

Turning to `Cn1c(Nc2c(Cl)cncc2Cl)nc2cc(C(=O)Nc3ccc(C4CC4)cc3)c3c(c21)CC(C)(C)O3` [Example-216, N-(4-Cyclopropylphenyl)-2-((3,5-dichloropyridin-4-yl)amino)-1,7,7-trimethyl-7,8-dihydro-1H-benzofuro[4,5-d]imidazole-5-carboxamide], the inhibition at 1 µM amounted to 96.5% and the inhibition at 10 µM was determined as 96.4%.

Consider `Cn1c(Nc2c(Cl)cncc2Cl)nc2cc(C(=O)Nc3cc(C4CC4)ccc3F)c3c(c21)CC(C)(C)O3` [Example-217, N-(5-Cyclopropyl-2-fluorophenyl)-2-((3,5-dichloropyridin-4-yl)amino)-1,7,7-trimethyl-7,8-dihydro-1H-benzofuro[4,5-d]imidazole-5-carboxamide], for which the inhibition at 1 µM was determined as 96.2% and the inhibition at 10 µM turned out to be 99.9%.

Regarding `Cn1c(Nc2c(Cl)cncc2Cl)nc2cc(C(=O)Nc3cc(C(F)(F)F)ccc3F)c3c(c21)CC(C)(C)O3` [Example-218, 2-((3,5-Dichloropyridin-4-yl)amino)-N-(2-fluoro-5-(trifluoromethyl)phenyl)-1,7,7-trimethyl-7,8-dihydro-1H-benzofuro[4,5-d]imidazole-5-carboxamide], the inhibition at 1 µM worked out at 99.4% and the inhibition at 10 µM was determined as 100%.

Take `Cn1c(Nc2c(Cl)cncc2Cl)nc2cc(C(=O)Nc3ccc(C(F)(F)F)cn3)c3c(c21)CC(C)(C)O3` [Example-219, 2-((3,5-Dichloropyridin-4-yl)amino)-1,7,7-trimethyl-N-(5-(trifluoromethyl)pyridin-2-yl)-7,8-dihydro-1H-benzofuro[4,5-d]imidazole-5-carboxamide]: the inhibition at 1 µM was found to be 97.8% and the inhibition at 10 µM was determined as 98.5%.

`Cn1c(Nc2c(Cl)cncc2Cl)nc2cc(C(=O)NCC3CC3)c3c(c21)CC(C)(C)O3` [Example-220, N-(Cyclopropylmethyl)-2-((3,5-dichloropyridin-4-yl)amino)-1,7,7-trimethyl-7,8-dihydro-1H-benzofuro[4,5-d]imidazole-5-carboxamide]: the inhibition at 1 µM amounted to 81.5% and the inhibition at 10 µM was found to be 99.8%.
